The values that follow come from US7935530B2, “Polyamides with tail structures capable of binding DNA” (California Institute of Technology, priority 2006, dated 2011).

Assay [1] concerns 5′-ATACGT-3′ sequence within the HRE of the VEGF promoter. Put plainly: Quantitative DNase I footprint titration on pGL2-VEGF-Luc PCR product, VEGF HRE. It counts as binding. The note with it: for Ka at the VEGF HRE: Example 2, pGL2-VEGF-Luc. The method, then: Quantitative DNase I footprint titration experiments were used to determine polyamide-binding affinities (Ka) to the 5′-ATACGT-3′ sequence within the HRE of the VEGF promoter. These experiments were performed using the 5′-^32P-labeled 197 bp PCR amplification product of the plasmid pGL2-VEGF-Luc isolated by non-denaturing gel electrophoresis (16, 21). Quantitative DNase I footprint titration experiments were conducted as reported previously (21).
Quantitative DNase I footprint titration experiments were used to measure the binding affinities of polyamides 11.1, 11.2, 11.3, and echinomycin on 5′ ^32P-labeled fragments of pGL2-VEGF-Luc and pCSJ-FLT1 containing promoter sequences containing the HREs of VEGF and FLT1, respectively. Quantitative DNase I footprint titration experiments were conducted as reported previously (56).

The subject of assay [2] is VEGF mRNA. Put plainly: DFO-induced VEGF mRNA by quantitative real-time RT-PCR, U251 cells. It is filed as cell-based, human. The note with it: for HIF-1 induced genes affected: VEGF: HRE tgcaTACGTGggct, E 100 nM, 11.1 and 11.3 1 μM, U251; for Effect on DFO-induced VEGF mRNA (in words) / Effect on induced VEGF expression (in words) / Induction of VEGF mRNA by DFO (in words), FIG. 15a legend: U251 cells; for Effect on DFO-induced VEGF mRNA (in words): 0.2 and 1 μM; for Effect on induced VEGF expression (in words): Example 2, polyamides 1 μM, echinomycin 100 nM; for Induction of VEGF mRNA by DFO (in words), FIG. 15a legend: echinomycin (100 nM), polyamides (10 μM). The method, then:
Cells were plated in 24-well plates at a density of 15-20×10^3 cells per well (30-40×10^3 cells/ml). Polyamides were added to adhered cells in solutions of cell media at the appropriate concentration and allowed to incubate with the cells for 48 h. […] Cells were harvested, RNA isolated, cDNA synthesized and quantitative real-time RT-PCR conducted as described previously (16). Briefly, RNA was isolated using the RNeasy kit (Qiagen), cDNA synthesized using Powerscript (BD Biosciences) and quantitative real-time RT-PCR performed using SYBR Green PCR Master Mix (Applied Biosystems) on an ABI 7300 instrument. VEGF expression was measured relative to β-glucuronidase (GUSB) as an endogenous control. Statistical analyses of results were determined using three independent biological replicates. The primer sequences used for VEGF and GUSB are available upon request. HeLa cells were purchased from ATCC and U251 cells were received as a gift from Dr Giovanni Melillo of the National Cancer Institute.
(§1) U251 cells were plated in 24-well plates at a density of 20−30×10^3 cells per well (40−60×10^3 cells/ml) in RPMI (ATCC) supplemented with 5% FBS (Irvine Scientific). After 24 hours, polyamides were added to the adhered cells in cell media solutions at the appropriate concentration and incubated with the cells for 48 hours. […] When appropriate, echinomycin was added two hours prior to DFO stimulation. Isolation of RNA and subsequent cDNA synthesis were as previously described (19). When appropriate, HIF-1α siRNA (HIF-1α validated stealth duplex, Invitrogen) or mismatch control siRNA with similar GC content (Invitrogen) was transfected 48 hours prior to RNA isolation. Transfection of siRNA was achieved using Lipofectamine 2000 (Invitrogen) according to manufacturer's protocols. Quantitative real-time RT-PCR was performed using SYBR Green PCR Master Mix (Applied Biosystems) on an ABI 7300 instrument. Target gene mRNA was measured relative to β-glucuronidase as an endogenous control. Primer employed were: VEGF, L 5′[…]-3′ (SEQ ID NO:22), R 5′-GGGTACTCC TGGAAGATGTCC-3′ (SEQ ID NO:23); β-glucuronidase, L 5′-[…]-3′ (SEQ ID NO:24), R 5′-[…]-3′ (SEQ ID NO:25); FLT1, L 5′-[…]-3′ (SEQ ID NO:26), R 5′-[…]-3′ (SEQ ID NO:27).
Background: In qPCR the cycle at which signal appears reflects the starting amount.

Assay [3] has as its system FLT1 mRNA. Put plainly: DFO-induced FLT1 mRNA by quantitative real-time RT-PCR, U251 cells. It is filed as cell-based, human. To be noted: for HIF-1 induced genes affected: FLT1: HRE gaacAACGTGgaat, E 100 nM, 11.1 and 11.3 1 μM, U251; for Effect on DFO-induced FLT1 mRNA (in words): U251 cells, polyamides 1 μM, echinomycin 100 nM. The procedure: as §1
In assay [4] the test system is HIF-1α occupancy at the VEGF HRE. Put plainly: Chromatin immunoprecipitation with anti-HIF1α, U251 cells, VEGF HRE. It counts as cell-based, human. The note with it: DFO-induced, polyamides 1 μM, echinomycin 100 nM. The method, then: Cells were plated on 15 cm diameter culture dishes and left to attach overnight. Polyamides were incubated with the cells for 48 h, and the cells were incubated for an additional 16 h after the addition of DFO to a final concentration of 300 μM. Cells were then treated with 1% formaldehyde for 10 min. Chromatin was isolated and sheared. HIF-1 antibodies (Novus Biologicals) were used to immunoprecipitate HIF-1 bound DNA fragments. After crosslink reversal, PCRs using primers flanking the HRE of VEGF were used to assess enrichment of bound fragments as compared to mock-precipitated (no antibody) controls. PCRs were monitored either using SYBR Green PCR Master Mix (Applied Biosystems) on an ABI 7300 instrument, or directly visualized using gel electrophoresis.
U251 cells were plated in 15 cm diameter plates and left to attach overnight. Media, time course, DFO, polyamide, echinomycin, and siRNA treatments were as described above. After the 16 hour DFO treatment, cells were treated with 1% formaldehyde for 10 minutes. Chromatin was isolated and sheared. HIF-1α antibodies (Novus Biologicals) were used to immunoprecipitate HIF-1-bound DNA fragments. After crosslink reversal, PCRs using primers targeted to the regions of interest were used to assess enrichment of bound fragments as compared to mock-precipitated (no antibody) controls. PCRs were monitored either using SYBR Green PCR Master Mix (Applied Biosystems) on an ABI 7300 instrument, or directly visualized using gel electrophoresis. The following primers were used: VEGF, L 5′-CCTTTGGGTTTTGCCAGA-3′ (SEQ ID NO:28), R 5′-CCAAGTTTGTGGAGCTGA-3′ (SEQ ID NO:29); CA9, L 5′-AAAAGGGCGCTCTGTGAGT-3′ (SEQ ID NO:30), R 5′-GCTGACTGTGGGGTGTCC-3′ (SEQ ID NO:31); PGK1, L 5′-CCCCTAAGTCGGGAAGGTT-3′ (SEQ ID NO:32), R 5′-[…]-3′ (SEQ ID NO:33).

Assay [5] deals with BNIP3. Put plainly: HIF-1 induced gene expression, U251 cells (Table 3), BNIP3. It counts as cell-based, human. To be noted: HRE gccgCACGTGccac, E 100 nM. The method, then: as §1
The test system of assay [6] is EDN1. Put plainly: HIF-1 induced gene expression, U251 cells (Table 3), EDN1. It counts as cell-based, human. To be noted: HRE aggcAACGTGcagc; E 100 nM, 11.1 and 11.3 1 μM. The procedure:
as §1

The subject of assay [7] is 11 HIF-1 induced genes. Description: Quantitative real-time RT-PCR confirmation on the set of 11 HIF-1 induced genes, U251 cells. It counts as cell-based, human. To be noted: E 100 nM, polyamides 1 μM.
Source text: Quantitative real-time RT-PCR was used to confirm the effects of polyamides 11.1, 11.3, echinomycin, and siRNA treatments on these 11 genes. […] Chromatin immunoprecipitation was used to measure HIF-1 occupancy at the HREs of VEGF and carbonic anhydrase IX (CA9), which were both affected by polyamide 11.1, and PGK1, which was unaffected (FIG. 17). HIF-1α occupancy at the VEGF HRE was decreased by HIF-1α siRNA, echinomycin, and polyamide 11.1, but less so by treatment with HRE-mismatch polyamide 11.3.
as §1

Entries after “also recorded” stand apart in the source; their conditions may differ.

`CN(CCCNC(=O)c1cccc(C(=O)O)c1)CCCNC(=O)c1cc(NC(=O)c2cc(NC(=O)c3cc(NC(=O)c4nc(NC(=O)[C@H](N)CCNC(=O)c5cc(NC(=O)c6cc(NC(=O)c7nc(NC(=O)c8nccn8C)cn7C)cn6C)cn5C)cn4C)cn3C)cn2C)cn1C` [Polyamide 23]: the “Ka at the VEGF HRE” value in assay [1] was 8.0 (±1.0)×10^8 M^−1. In assay [2], the “HIF-1 induced genes affected: VEGF” value was -1.3; the “Effect on DFO-induced VEGF mRNA (in words)” value is reported as “more modest effect than its match congener 11; also recorded: modest activity at both concentrations”; the “Induction of VEGF mRNA by DFO (in words), FIG. 15a legend” value (shortened to “Induction of VEGF mRNA by DFO”) is listed as “more modest effect”. For the same compound, the “Effect on induced VEGF expression (in words)” value in assay [2] (listed as 11.3) is on record as “more modest effect on VEGF mRNA levels; also recorded: modest but measurable effect on VEGF expression”. For the same compound, in assay [3], the “HIF-1 induced genes affected: FLT1” value is reported as -1.1. Moreover, the “Effect on DFO-induced FLT1 mRNA (in words)” value in assay [3] (listed as 11.3) was “minimal effect; also recorded: minimal or no effect”. Besides, the “HIF-1α occupancy at the VEGF HRE (chromatin immunoprecipitation)” value (shortened to “HIF-1α occupancy at the VEGF HRE”) in assay [4] was “more modest effect compared with that of its match congener 11”. Besides, the “HIF-1α occupancy at the VEGF HRE” value in assay [4] (listed as 11.3) is recorded as “less so; also recorded: only modestly affected”. In assay [5] (11.1 and 11.3 1 μM), the “HIF-1 induced genes affected: BNIP3” value is listed as 1.0. Moreover, the “HIF-1 induced genes affected: EDN1” value in assay [6] is 1.3. In addition, the “Genes of the set of 11 HIF-1 induced genes affected (quantitative real-time RT-PCR)” value (“Genes … (quantitative real-time RT-PCR)” below) in assay [7] was “little effect on the expression of all the others”.

`CS[C@H]1SC[C@H]2C(=O)N(C)[C@@H](C(C)C)C(=O)OC[C@@H](NC(=O)c3cnc4ccccc4n3)C(=O)N[C@@H](C)C(=O)N(C)[C@@H]1C(=O)N(C)[C@@H](C(C)C)C(=O)OC[C@@H](NC(=O)c1cnc3ccccc3n1)C(=O)N[C@@H](C)C(=O)N2C` [echinomycin, reference compound]: the “Ka at the VEGF HRE” value in assay [1] was 8.4 (±2.1)×10^6 M^−1. Also, in assay [2], the “HIF-1 induced genes affected: VEGF” value is reported as -34.0; the “Effect on induced VEGF expression (in words)” value is on record as “potently inhibits VEGF expression to levels below the non-induced control”; the “Induction of VEGF mRNA by DFO” value is listed as “potently inhibits VEGF mRNA to below non-induced levels”. For the same compound, in assay [3], the “HIF-1 induced genes affected: FLT1” value is recorded as -4.7 and the “Effect on DFO-induced FLT1 mRNA (in words)” value is “decrease FLT1 mRNA levels”. The “Effect on DFO-induced FLT1 mRNA (in words)” value in assay [3] (listed as Echinomycin) is recorded as “reduced FLT1 expression to below that of the non-induced control”. Besides, the “HIF-1α occupancy at the VEGF HRE” value in assay [4] is on record as “decreased”. The “HIF-1 induced genes affected: BNIP3” value in assay [5] is −6.0. The “HIF-1 induced genes affected: EDN1” value in assay [6] is -31.0. Further, in assay [7], the “Genes … (quantitative real-time RT-PCR)” value is on record as “reduced expression of all genes in this set”.

In the case of `CN(CCCNC(=O)c1cccc(C(=O)O)c1)CCCNC(=O)c1cc(NC(=O)c2cc(NC(=O)c3nc(NC(=O)c4cc(NC(=O)[C@H](N)CCNC(=O)c5nc(NC(=O)c6cc(NC(=O)c7cc(NC(=O)c8sccc8Cl)cn7C)cn6C)cn5C)cn4C)cn3C)cn2C)cn1C` [Polyamide 11], the “Binding affinities (M-1), 5′-TACGTG-3′ (equilibrium association constants)” value in assay [1] (mean of three DNase I footprint titration experiments, standard deviations in parentheses, 197 bp PCR product of pGL2-VEGF-Luc) was 2.6 (±0.4) × 10^10 M-1. In assay [2], the “HIF-1 induced genes affected: VEGF” value is recorded as -2.0; the “Effect on DFO-induced VEGF mRNA (in words)” value was “inhibited dose dependently; also recorded: dose-dependent inhibition of VEGF”; the “Effect on induced VEGF expression (in words)” value is “inhibited most of the increase in VEGF mRNA following DFO treatment”; the “Induction of VEGF mRNA by DFO” value is “decrease VEGF mRNA levels to near non-induced levels”. Further, the “HIF-1 induced genes affected: FLT1” value in assay [3] is recorded as -2.0. For the same compound, the “Effect on DFO-induced FLT1 mRNA (in words)” value in assay [3] (listed as 11.1) is reported as “inhibited FLT1 expression; also recorded: decrease FLT1 mRNA levels”. The “HIF-1α occupancy at the VEGF HRE” value in assay [4] is given as “decreased occupancy of HIF-1α at the VEGF HRE; also recorded: inhibited”. In assay [4] (listed as 11.1), the “HIF-1α occupancy at the VEGF HRE” value was “decreased”. Besides, the “HIF-1 induced genes affected: BNIP3” value in assay [5] (11.1 and 11.3 1 μM) came to 1.3. Also, the “HIF-1 induced genes affected: EDN1” value in assay [6] is -2.5. In assay [7], the “Genes … (quantitative real-time RT-PCR)” value was 4.
